In brackets after ≈: the same amount, converted by molar mass. Structures can show the parent of a compound that is named as a salt. Where two headings read alike, the source gives them in different places.
How the values were obtained:
[1] = tested on: Entercococcus faecalis ATCC 8043; test: antibacterial activity, agar plate dilution method (MIC); type: cell-based; details: read-out: Minimum Inhibitory Concentration (MIC)
Protocol: (§1) The antibacterial activity against various bacteria was measured by the agar plate dilution method (inoculum size: 10^6 cells/ml), and the results are shown in the following Table 1.

[2] = tested on: Eschelichia coli A13; test: as above; type: cell-based; details: read-out: Minimum Inhibitory Concentration (MIC)
Protocol: as §1

[3] = tested on: Eschelichia coli NIHJ JC-2; test: as above; type: cell-based; details: read-out: Minimum Inhibitory Concentration (MIC)
Protocol: as §1

[4] = tested on: Staphylococcus aureus 209P-JC; test: as above; type: cell-based; details: read-out: Minimum Inhibitory Concentration (MIC)
Protocol: as §1

[5] = tested on: Staphylococcus aureus K-1; test: as above; type: cell-based
Protocol: as §1

[6] = tested on: Staphylococcus epidermidis sp-al-1; test: as above; type: cell-based
Protocol: as §1

[7] = in vivo; set-up: species or system male Japanese native strain white rabbits; details: blood, rabbit, oral, 20 mg/kg suspended in 5% gum arabic, bioassay (Bacillus luteus S1101)
Protocol: Three male Japanese native strain white rabbits weighing 2.50 to 3.15 kg for each group were administered orally with the test compounds, and the change of the concentration of the compound in blood was measured.
Dosage of the test compound: 20 mg/kg (suspended in 5% gum arabic).
Quantitative method: Bioassy method (test bacterium: Bacillus luteus S1101).

[8] = Staphylococcus aureus, K1, read-out: Minimum Inhibitory Concentration (MIC)
[9] = Staphylococcus epidermidis, SPAL1, read-out: Minimum Inhibitory Concentration (MIC)
[10] = Entercococcus faecalis ATCC 8043, inoculum size: 10^6 cells/ml
[11] = Eschelichia coli A13, inoculum size: 10^6 cells/ml
[12] = Eschelichia coli NIHJ JC-2, inoculum size: 10^6 cells/ml
[13] = Staphylococcus aureus 209P-JC, inoculum size: 10^6 cells/ml
[14] = K1, Staphylococcus aureus K-1, inoculum size: 10^6 cells/ml, read-out: Minimum Inhibitory Concentration (MIC)
[15] = SPAL1, Staphylococcus epidermidis sp-al-1, inoculum size: 10^6 cells/ml, read-out: Minimum Inhibitory Concentration (MIC)

Row | SMILES | MIC [1] [µg/mL] | MIC [2] [µg/mL] | MIC [3] [µg/mL] | MIC ([4]; Staphylococcus aureus, 209P) [µg/mL] | MIC [5, 8] [µg/mL] | MIC [6, 9] [µg/mL] | concentration at 4 h ([7]; Four Hours after administration) [ng/mL] | concentration at 1 h ([7]; One Hour after administration) [ng/mL] | concentration at 2 h ([7]; Two Hours after administration) [ng/mL] | MIC [1, 10] [µg/mL] | MIC [2, 11] [µg/mL] | MIC [3, 12] [µg/mL] | MIC [4, 13] [µg/mL] | MIC [5, 14] [µg/mL] | MIC [6, 15] [µg/mL]
1 | N#CCSC1=C(C(=O)[O-])N2C(=O)[C@@H](NC(=O)/C(=N\O)c3csc(N)n3)[C@H]2SC1.[Na+] | 1.56 | 1.56 | 0.2 | 0.2 | 0.78 | 0.78 | 2500 | 2500 | 4000 |  |  |  |  |  | 
2 | Nc1nc(/C(=N/O)C(=O)N[C@@H]2C(=O)N3C(C(=O)O)=C(SCCF)CS[C@H]23)cs1 [B] |  |  |  |  |  |  |  |  |  | 25 (≈ 55.9 µM) | 6.25 (≈ 14 µM) | 0.39 (≈ 0.872 µM) | 0.39 (≈ 0.872 µM) | 0.78 (≈ 1.74 µM) | 0.78 (≈ 1.74 µM)
3 | C=CCSC1=C(C(=O)O)N2C(=O)[C@@H](NC(=O)/C(=N\O)c3csc(N)n3)[C@H]2SC1 [C] | 12.5 (≈ 28.3 µM) | 6.25 (≈ 14.2 µM) |  |  | 6.25 (≈ 14.2 µM) |  |  |  |  |  |  | 0.2 (≈ 0.453 µM) | 0.2 (≈ 0.453 µM) |  | 0.39 (≈ 0.883 µM)
4 | CC1=C(C(=O)O)N2C(=O)[C@@H](NC(=O)[C@H](N)c3ccccc3)[C@H]2SC1 [D, Cephalexin, reference compound] | 100 (≈ 288 µM) | > 100 | 6.25 (≈ 18 µM) | 0.78 (≈ 2.25 µM) | > 100 | 1.56 (≈ 4.49 µM) |  |  |  |  |  |  |  |  | 
5 | C=CC1=C(C(=O)O)N2C(=O)[C@@H](NC(=O)/C(=N\OCC(=O)O)c3csc(N)n3)[C@H]2SC1 [E, Cefixime sodium salt, reference compound] |  |  | 0.39 | 12.5 |  |  |  |  |  | > 100 | > 100 |  |  | > 100 | 50
